Earlier results, collected in patent US20150133410A1, “TOPICAL OPHTHALMIC, OTIC, AND NASAL COMPOSITIONS OF CIPROFLOXACIN” (priority 2013, published 2015).
Like-named read-outs stand apart in the source and are kept apart here.

Conditions: aqueous solutions of about 0.2 to about 1 weight percent

## O=C(O)c1cn(C2CC2)c2cc(N3CCNCC3)c(F)cc2c1=O [ciprofloxacin]
5° C.
  pH above which crystalline precipitation of ciprofloxacin occurs: above 5
Room temperature
  pH above which crystalline precipitation of ciprofloxacin occurs: above 5.5
